Assay results as given in paper PMC10235067, “Increased renal elimination of endogenous and synthetic pyrimidine nucleosides in concentrative nucleoside transporter 1 deficient mice” (Nature Communications, 2023).
“And” between values parts separate entries of the source, which are not always exact repeats. Equal values may be shown once.

Key:
[1] = Gemcitabine plasma pharmacokinetics in Slc28a1+/+ and Slc28a1-/- mice; settings: for C0: C0, dFdU in plasma; for MRT last: MRTlast
Method: To collect blood, a 5 mm lancet was used to apply pressure to the submandibular vein and release blood flow. For retro-orbital collection, mice were anesthetized with 3% isoflurane in oxygen, and the blood was collected directly into heparinized capillary tubes by applying slight pressure to the medial canthus of the eye. Cardiac puncture was performed as the final collection method by first euthanizing the mice in a CO2 chamber and immediately performing posterior cardiac puncture by inserting a 27 G needle with a 1 ml syringe attachment into the heart. Once blood collection was completed, gentle pressure was applied to the blood collection area using gauze to stop the bleeding. Thirty microliters of blood was collected into heparinized capillary tubes at each time point, transferred into prelabeled 0.5 ml microcentrifuge tubes containing THU (10 µg/ml; final concentration), and immediately processed and snap-frozen following procedures outlined in the “Gemcitabine plasma pharmacokinetics” methods section.
Gemcitabine and dFdU plasma concentrations were measured using a modified version of our previously published UHPLC–MS/MS method for nucleosides[74] […] Noncompartmental pharmacokinetic parameters (Cmax, Tmax, AUC, CL, T1/2, etc.) were calculated using WinNonlin 6.2 software (Pharsight; Mountain View, CA). […] The Cmax and Tmax were obtained from the concentration-time curve. The AUC was calculated according to the linear trapezoidal rule up to the last time point with a measurable concentration of the analyte of interest. Significant differences between Slc28a1^+/+ and Slc28a1^−/− mouse pharmacokinetic parameters (p < 0.05) were evaluated with an unpaired two-sided Student’s t-test.
The resulting supernatant was evaporated to dryness in a SpeedVac, and the remaining residue was reconstituted in mobile phase A for subsequent analysis. […] Subsequent processing was identical to that for the plasma and urine samples.
Briefly, the analysis was performed on an Imtakt Schzero SM C18 column, 2.1 × 100 mm, 3.0 µm particle size. The eluents used consisted of mobile phase A consisting of 50 mM ammonium formate:50 mM ammonium hydroxide (9:1, v/v) (pH = 8.6) and mobile phase B consisting of 50 mM ammonium formate:50 mM ammonium hydroxide (9:1, v/v):ACN (80:20, v/v) (pH = 8.6). […] The injection volume was 10 μL, and the autosampler temperature was set at 4 °C throughout the analysis.
The Waters Triple Quadrupole Mass Spectrometer with an ESI source was operated in negative and positive ion mode at a spray voltage of 2.5 kV, capillary temperature of 150 °C, and vaporizer temperature of 250 °C. Compound optimization was performed manually using the MassLynx 4.1 Software AutoTune Wizard (Waters, Milford, MA) by infusion into the mass spectrometer using a T-connector. […] Analyze concentrations were determined and analyzed using MassLynx Mass Spectrometry Software (Waters; Milford, MA).

[2] = Gemcitabine urine pharmacokinetics (renal excretion) in Slc28a1+/+ and Slc28a1-/- mice; settings: Figure 5 G, H, I, individual mice; for concentration at 5 min / concentration at 10 min / concentration at 15 min / concentration at 30 min / concentration at 60 min / concentration at 120 min / concentration at 240 min: mouse, urine, intravenous, 50 mg/kg, Cp (dFdU)
Method: THU was added to the mouse urine samples upon collection and frozen until analysis. […] Five microliters of the diluted samples were transferred to a 96-well autosampler plate then 10 µL of internal standard mixture was added and mixed. […] The plate was then transferred to the 4 °C autosampler for analysis.
The chromatographic separation was performed on a Thermo Accucore aQ 2.6 µm, 100 ×2.1 mm column at 30 °C using a gradient with a 10 µL injection volume. The mobiles phases were 1 mM ammonium acetate in deionized water pH 6.8 and acetonitrile. The total run time was 5.5 min. […] The LC–MS/MS analysis was conducted on a Thermo Vanquish UHPLC with a TSQ Quantiva mass spectrometer equipped with an electrospray ionization source.

[3] = dFdU in plasma, WT mice, iv gemcitabine 50mg/kg, per mouse
[4] = female, Slc28a1-/- (CNT1 knockout; background strain not stated), mouse, plasma, intravenous, 50 mg/kg, Cp (dFdU), KO mice, single iv gemcitabine 50mg/kg
[5] = female, mouse, plasma, intravenous, 50 mg/kg, Cp (dFdU), WT mice, single iv gemcitabine 50mg/kg

Tlast [1, 3]: 15 min and 30 min
Tmax [1, 3]: 10 min and 5 min and 15 min
concentration at 120 min [1, 4]: 0 ng/mL
concentration at 240 min [1, 4]: 0 ng/mL
concentration at 5 min ([1]; female, mouse, plasma, intravenous, 50 mg/kg, Cp (dFdU), KO mice, single iv gemcitabine 50mg/kg, 5 min): 400 ng/mL
concentration at 60 min ([1]; female, mouse, plasma, intravenous, 50 mg/kg, Cp (dFdU), KO mice, single iv gemcitabine 50mg/kg): 0 ng/mL
concentration at 60 min [1, 5]: 0 ng/mL
concentration at 120 min [1, 5]: 0 ng/mL
concentration at 240 min [1, 5]: 0 ng/mL
AUC(0-inf) ([1]; female, mouse, plasma, iv, 50 mg/kg, AUCINF_obs, dFdU in plasma, KO mice, iv gemcitabine 50mg/kg, per mouse): 121 ng·h/mL
AUC(0-inf) ([1]; female, mouse, plasma, iv, 50 mg/kg, AUCINF_pred, dFdU in plasma, KO mice, iv gemcitabine 50mg/kg, per mouse): 121 ng·h/mL
C0 ([1]; female, mouse, plasma, iv, 50 mg/kg, KO mice, iv gemcitabine 50mg/kg, per mouse): 408 ng/mL
C0 ([1]; female, mouse, plasma, iv, 50 mg/kg, WT mice, iv gemcitabine 50mg/kg, per mouse): 445 ng/mL
Cmax ([1]; female, mouse, plasma, iv, 50 mg/kg, Slc28a1+/+ mice, plasma, single i.v. dFdC 50 mg/kg): 453 ± 7.35 ng/mL
Cmax ([1]; female, mouse, plasma, iv, 50 mg/kg, Slc28a1-/- mice, single i.v. dFdC 50 mg/kg): 386 ± 8.42 ng/mL
k el ([1]; female, mouse, plasma, iv, 50 mg/kg, Lambda_z, dFdU in plasma, KO mice, iv gemcitabine 50mg/kg, per mouse): 0.00206 s⁻¹
MRT inf ([1]; female, mouse, plasma, iv, 50 mg/kg, MRTINF_obs, dFdU in plasma, KO mice, iv gemcitabine 50mg/kg, per mouse): 10.1 min
MRT inf ([1]; female, mouse, plasma, iv, 50 mg/kg, MRTINF_pred, dFdU in plasma, KO mice, iv gemcitabine 50mg/kg, per mouse): 10.1 min
MRT last ([1]; female, mouse, plasma, iv, 50 mg/kg, dFdU in plasma, KO mice, iv gemcitabine 50mg/kg, per mouse): 9.07 min
MRT last ([1]; female, mouse, plasma, iv, 50 mg/kg, dFdU in plasma, WT mice, iv gemcitabine 50mg/kg, per mouse): 8.1 min
Tmax ([1]; female, mouse, plasma, iv, 50 mg/kg, Tmax, Slc28a1+/+ mice, plasma, single i.v. dFdC 50 mg/kg): 240 min
Tmax ([1]; female, mouse, plasma, iv, 50 mg/kg, Tmax, Slc28a1-/- mice, single i.v. dFdC 50 mg/kg): 240 min
concentration at 5 min ([2]; KO mice, 5 Minutes): 344 ng/mL
concentration at 10 min ([2]; KO mice, 10 Minutes): 239 ng/mL
concentration at 15 min ([2]; KO mice, 15 Minutes): 344 ng/mL
concentration at 30 min ([2]; KO mice, 30 Minutes): 334 ng/mL
concentration at 60 min ([2]; KO mice, 60 Minutes): 350 ng/mL
concentration at 120 min ([2]; KO mice, 120 Minutes): 354 ng/mL
concentration at 240 min ([2]; KO mice, 240 Minutes): 371 ng/mL
concentration at 5 min ([2]; WT mice, 5 Minutes): 328 ng/mL
concentration at 10 min ([2]; WT mice, 10 Minutes): 330 ng/mL
concentration at 15 min ([2]; WT mice, 15 Minutes): 331 ng/mL
concentration at 30 min ([2]; WT mice, 30 Minutes): 328 ng/mL
concentration at 60 min ([2]; WT mice, 60 Minutes): 329 ng/mL
concentration at 120 min ([2]; WT mice, 120 Minutes): 332 ng/mL
concentration at 240 min ([2]; WT mice, 240 Minutes): 429 ng/mL
Compound: O=c1ccn([C@@H]2O[C@H](CO)[C@@H](O)C2(F)F)c(=O)[nH]1 [dFdU, 2′,2′-difluorodeoxyuridine]
MRTINF_obs [1, 3]: 88.1868 min and 26.3212 min and 14.3667 min and 30.2266 min
MRTINF_pred [1, 3]: 88.315 min and 25.0092 min and 14.2143 min and 30.2855 min
MRTlast [1, 3]: 7.307 min and 11.7511 min and 10.7753 min and 12.973 min and 10.8216 min
Vss_obs [1, 3]: 108.907 L/kg and 105.643 L/kg and 83.3357 L/kg and 80.1423 L/kg
Vss_pred [1, 3]: 108.137 L/kg and 105.015 L/kg and 82.9031 L/kg and 80.1342 L/kg
Vz_obs [1, 3]: 108.979 L/kg and 99.2063 L/kg and 70.6936 L/kg and 76.9343 L/kg
Vz_pred [1, 3]: 108.051 L/kg and 103.79 L/kg and 71.0811 L/kg and 76.7768 L/kg
Cp (dFdU) ([1]; plasma, KO mice, single iv gemcitabine 50mg/kg, 5 min): 397.109 ng/mL and 353.736 ng/mL and 215.606 ng/mL and 287.027 ng/mL and 238.121 ng/mL
Cp (dFdU) ([2]; KO mice, 5 Minutes): 317.288 ng/mL and 341.288 ng/mL and 338.288 ng/mL and 263.288 ng/mL
Cp (dFdU) ([2]; KO mice, 10 Minutes): 227.479 ng/mL and 269.479 ng/mL and 242.479 ng/mL and 273.479 ng/mL and 275.479 ng/mL
Cp (dFdU) ([2]; KO mice, 15 Minutes): 331.541 ng/mL and 373.541 ng/mL and 346.541 ng/mL and 377.541 ng/mL and 379.541 ng/mL
Cp (dFdU) ([2]; KO mice, 30 Minutes): 322.048 ng/mL and 364.048 ng/mL and 337.048 ng/mL and 368.048 ng/mL and 370.048 ng/mL
Cp (dFdU) ([2]; KO mice, 60 Minutes): 338.37 ng/mL and 380.37 ng/mL and 353.37 ng/mL and 384.37 ng/mL and 386.37 ng/mL
Cp (dFdU) ([2]; KO mice, 120 Minutes): 342.398 ng/mL and 384.398 ng/mL and 357.398 ng/mL and 388.398 ng/mL and 390.398 ng/mL
Cp (dFdU) ([2]; KO mice, 240 Minutes): 359.089 ng/mL and 401.089 ng/mL and 374.089 ng/mL and 405.089 ng/mL and 407.089 ng/mL
Cp (dFdU) ([2]; WT mice, 5 Minutes): 390.036 ng/mL and 363.036 ng/mL and 387.036 ng/mL and 384.036 ng/mL and 309.036 ng/mL
Cp (dFdU) ([2]; WT mice, 10 Minutes): 317.618 ng/mL and 359.618 ng/mL and 332.618 ng/mL and 363.618 ng/mL and 365.618 ng/mL
Cp (dFdU) ([2]; WT mice, 15 Minutes): 319.343 ng/mL and 361.343 ng/mL and 334.343 ng/mL and 365.343 ng/mL and 367.343 ng/mL
Cp (dFdU) ([2]; WT mice, 30 Minutes): 316.265 ng/mL and 358.265 ng/mL and 331.265 ng/mL and 362.265 ng/mL and 364.265 ng/mL
Cp (dFdU) ([2]; WT mice, 60 Minutes): 316.849 ng/mL and 358.849 ng/mL and 331.849 ng/mL and 362.849 ng/mL and 364.849 ng/mL
Cp (dFdU) ([2]; WT mice, 120 Minutes): 320.376 ng/mL and 362.376 ng/mL and 335.376 ng/mL and 366.376 ng/mL and 368.376 ng/mL
Cp (dFdU) ([2]; WT mice, 240 Minutes): 471.043 ng/mL and 459.043 ng/mL and 432.043 ng/mL and 463.043 ng/mL and 465.043 ng/mL
